Source: patent US20220265629A1, “TREATMENT OF SYSTOLIC DYSFUNCTION AND HEART FAILURE WITH REDUCED EJECTION FRACTION WITH THE COMPOUND (R)-4-(1-((3-(DIFLUOROMETHYL)-1-METHYL-1H-PYRAZOL-4-YL)SULFONYL)-1-FLUOROETHYL)-N-(ISOXAZOL-3-YL)PIPERIDINE-1-CARBOXAMIDE” (MyoKardia, Inc., priority 2019, published 2022)
Where two headings read alike, the source gives them in different places.

Key:
[1] = Single ascending oral dose study in healthy volunteers: urinary excretion and renal clearance; assay type: in vivo, human; conditions: for CL renal: human, plasma and urine
Description: The concentrations of Compound I in human plasma and urine were quantitated by high performance liquid chromatography with tandem mass spectrometric detection (LC MS/MS) (Biological sample analysis study report Alturas AD17-726). Plasma samples were extracted by protein precipitation with acetonitrile containing internal standard MYK-5654. The calibration curves were linear over concentration range of 0.500 to 1000 ng/mL with a lower limit of quantification (LLOQ) of 0.500 ng/mL.
The PK Population included all subjects who received Compound I. Blood samples were collected for PK assessments. The actual timing of the samples may have been modified and/or up to an additional 2 samples may have been requested by the SRC after review of the data from previous cohorts. It was important that PK sampling occurred as closely as possible to the scheduled time (±10%). Both blood and urine samples were used for PK assessments.

healthy subjects = test: Single ascending oral dose study in healthy volunteers: safety (AEs, ECG, hs-troponin I); assay type: in vivo, human
Description: PK and PD data were collected as described herein. […] Changes from Baseline at each postbaseline timepoint were assessed.
A 12-lead electrocardiogram (ECG) was obtained after the subjects had rested in a supine position for at least 10 minutes. […] Digital 12-lead ECG evaluations was performed after 10 minutes of rest at Screening, preclose on Day 1 (within 2 hours of dosing), and at various predetermined time points. Each time an ECG was completed, a 10-second paper ECG rhythm strip would also be obtained and maintained in the subject's source documentation.
The ECGs were transmitted to the core ECG laboratory who read the recordings in a blinded manner. An automated methodology was utilized with manual over-reading by a cardiologist. The following intervals were measured: RR, PR, QRS, and QT. Heart rate (HR) was calculated as 60/(RR×1000) (with RR expressed in msec) and rounded to the nearest integer.
Corrected QT interval (QTc) was calculated using the manually over-read QT values per the standard procedures of the central ECG laboratory. Each individual ECG QT value was corrected for HR. The measured QT data were corrected for HR using the Fridericia correction QTcF and the Bazzett method (QTcB) as per the following formulae/method (with QT, RR and QTc expressed in msec): […]
Any abnormal findings judged by the investigator to be clinically important were recorded as adverse events (AEs). AEs were mapped to system organ classes (SOCs) and preferred terms (PTs) using the Medical Dictionary for Regulatory Activities (MedDRA). AEs were monitored during the study and the data analyzed with respect to overall incidence, severity, and potential relationship to study medication. The blinded AEs were presented to the SRC for review after each cohort to aid in their decision on the dose of the subsequent cohort or if the study should be terminated. […] No ECG changes or symptoms were noted.
For the final analysis, the AEs were grouped by treatment group with all of the subjects who received placebo pooled as 1 group. AEs with onset on or after the first dose of study medication, or with an onset before the first dose of study medication that increased in severity on or after the first dose of study medication. Treatment-emergent AEs (defined as AEs starting […]) were summarized for the Safety Analysis Population by MedDRA SOC and PT, and by severity and relationship to treatment. Severe and life-threatening AEs, SAEs, and AEs leading to study withdrawal, if any, were presented in data listings.
Serum samples were drawn for hs-troponin I. Analyses were performed using the Abbott Architect STAT High Sensitivity Troponin I assay.

[2] = Unbound (free) fraction in plasma; assay type: in vitro ADME

With Cn1cc(S(=O)(=O)[C@@](C)(F)C2CCN(C(=O)Nc3ccon3)CC2)c(C(F)F)n1 [Compound I, (R)-4-(1-((3-(difluoromethyl)-1-methyl-1H-pyrazol-4-yl)sulfonyl)-1-fluoroethyl)-N-(isoxazol-3-yl)piperidine-1-carboxamide] the “dose recovered in 0-48 hours urine” value ([1]; 350 mg) was “approximately 6.0%”, the “dose recovered in 0-48 hours urine” value ([1]; 525 mg) was ~8.6% and the CL renal ([1]; oral, all doses, read-out: renal clearance, mean (converted)) was 9.5 mL/min. The CL renal ([1]; po, 350 mg, 350 mg dose group, read-out: renal clearance, mean (SD) (converted)) was 5.55 mL/min, the CL renal ([1]; po, 525 mg, 525 mg dose group, read-out: renal clearance, mean (SD) (converted)) was 13.3 mL/min and the CL renal ([1]; po, all doses, read-out: renal clearance, individuals range) was 2.95 to 23.3 mL/min. For the same molecule, the CL renal ([1]; po, all doses, read-out: renal clearance, mean (converted)) was ~9.5 mL/min, the “AEs considered related to treatment” value (healthy subjects; 50 mg dose group (50.0%)) was 3 subjects and the “serious AE” value (healthy subjects; 100 mg dose group) was “short duration of complete AV block”. For the same molecule, the “AEs considered related to treatment” value (healthy subjects; 350 mg dose group (50.0%)) was 3 subjects, the hs-troponin I concentration in one subject (healthy subjects; 525 mg group, 6 hours postdose, upper limit of normal 15 ng/L) was 16 ng/L and the “ECG or ECG intervals including PR interval” value (healthy subjects; 3-525 mg) was “no significant changes”. The “vital sign or safety laboratory parameters” value (healthy subjects; 3-525 mg) was “no clinically significant changes”, the tolerability (healthy subjects; single doses up to 525 mg) was “well-tolerated” and the “hs-troponin I, mild increase in one subject” value (healthy subjects; upper range of normal 15 ng/L) was 16 ng/L. The fraction unbound ([2]; dog, Dog plasma, read-out: fup (Dog), unbound fraction in plasma) was 0.416, the fraction unbound ([2]; human, Human plasma, 0.1 to 10 μM, read-out: fup (Human), unbound fraction in plasma) was 0.144 to 0.164 and the fraction unbound ([2]; human, read-out: fu, free fraction of Compound I in plasma) was 0.14 to 0.18.
